Entries after “also recorded” stand apart in the source; their conditions may differ. Counter-ions that a name gives are not always drawn.
Experiments:
LNCaP cells = experiment: Cell proliferation (DNA content, DAPI) in LNCaP cells; assay type: cell-based, human; conditions: 3 nM DHT, PP 100 nM, HH 100 nM, BiC 1 μM, seven days, hydrochloride
Description: (§1) LN-AR cells were created by retroviral infection of a high-expressing AR vector into LNCaP cells, and proliferate independent of androgen in cell culture, unlike their parental line (Chen, C. D., et al., Molecular determinants of resistance to antiandrogen therapy. Nat Med, 2004. 10(1): p. 33-9). HEK293 cells were used as a control. Cells were transferred to charcoal-stripped media two days before they were split and plated in quadruplicate at a density of approximately 20,000 cells/well in 48-well plates. […] Media were changed every day, using a single preparation to ensure consistent compound concentrations. Proliferation was determined by measuring the DNA content of the cells in each well. Each day, the cells in four wells were fixed in 100% cold methanol, followed by staining for 5 min at RT with 0.2 ng/mL 4′,6-diamidino-2-phenylindole (DAPI) in PBS. The cells were washed once in PBS, then read on a fluorescence plate reader using 365/439 excitation/emission wavelengths. LAPC4 and LNCaP cells proliferated to a much greater degree in the presence of DHT, while LN-AR cells proliferated in the presence and absence of DHT.

LAPC4 cells = experiment: Cell proliferation (DNA content, DAPI) in LAPC4 cells; assay type: cell-based, human; conditions: 3 nM DHT, PP 100 nM, HH 100 nM, BiC 1 μM, seven days
Description: as §1

AR = target: T1, AR (Homo sapiens, UniProt P10275, T878A); experiment: DHT titration against inhibitor, PSA-luciferase reporter in LNCaP cells (competitive vs non-competitive); assay type: cell-based; conditions: moderate dose of inhibitor, DHT titrated, hydrochloride
T1 construct: that each express endogenous AR; endogenous in cells; host or cells: LNCaP
T1 sequence (P10275 whole entry T878A): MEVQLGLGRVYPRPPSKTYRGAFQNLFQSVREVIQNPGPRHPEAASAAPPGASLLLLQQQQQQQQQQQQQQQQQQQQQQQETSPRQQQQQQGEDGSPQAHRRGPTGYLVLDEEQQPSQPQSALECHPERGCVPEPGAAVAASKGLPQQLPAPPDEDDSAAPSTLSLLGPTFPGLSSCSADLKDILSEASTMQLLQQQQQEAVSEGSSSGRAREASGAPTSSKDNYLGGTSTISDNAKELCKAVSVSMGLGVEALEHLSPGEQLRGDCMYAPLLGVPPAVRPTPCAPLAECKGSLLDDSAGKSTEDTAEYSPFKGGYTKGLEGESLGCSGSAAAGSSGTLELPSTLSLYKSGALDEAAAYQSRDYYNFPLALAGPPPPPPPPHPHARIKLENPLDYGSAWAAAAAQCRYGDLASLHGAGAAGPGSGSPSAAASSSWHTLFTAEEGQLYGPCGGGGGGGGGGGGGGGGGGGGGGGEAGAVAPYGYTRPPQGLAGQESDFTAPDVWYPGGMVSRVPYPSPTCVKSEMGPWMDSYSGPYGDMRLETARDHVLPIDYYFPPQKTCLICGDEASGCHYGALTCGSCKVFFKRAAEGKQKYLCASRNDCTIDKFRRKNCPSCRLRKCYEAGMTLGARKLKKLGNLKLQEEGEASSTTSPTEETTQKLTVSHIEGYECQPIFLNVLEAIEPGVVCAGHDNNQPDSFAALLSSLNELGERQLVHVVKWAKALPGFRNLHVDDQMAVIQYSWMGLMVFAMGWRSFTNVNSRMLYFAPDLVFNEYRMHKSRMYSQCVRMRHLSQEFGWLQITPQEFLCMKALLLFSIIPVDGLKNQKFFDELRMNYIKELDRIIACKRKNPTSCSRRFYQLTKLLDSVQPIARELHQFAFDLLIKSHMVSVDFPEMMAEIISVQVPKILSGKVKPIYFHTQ

With `Cc1nccc2c1[nH]c1cc(O)ccc12` [HH, harmol hydrochloride] the “Inhibition of cell growth” value (LNCaP cells) was “inhibited significantly; also recorded: growth-inhibitory properties”, the “Inhibition of cell growth” value (LAPC4 cells) was “not effective” and the “Mode of antagonism on DHT titration” value (AR) was “inhibited maximal DHT-induced activation; also recorded: consistent with a non-competitive antagonist”.
